Experimental data as given in PubChem BioAssay AID212 (DTP/NCI, 2004).
Where “and” joins values, the source holds several entries; their conditions need not be identical. Equal entries are not always repeated. Results filed as inconclusive are left out.

Tested on: BDF1 mice, colon carcinoma 38 sc, T/C %
Experiment: NCI In Vivo Anticancer Drug Screen. Data for tumor model Colon Carcinoma 38 (subcutaneous) in B6D2F1 (BDF1) mice
Method in brief: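 Transplantable tumor in mice; compound-treated vs vehicle-dosed controls. Measured survival or tumor size; value = T ÷ C.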

Q: For `COc1cccc2c1C(=O)c1c(O)c3c(c(O)c1C2=O)C[C@@](O)(C(=O)CO)C[C@@H]3OC1CC(N)C(O)C(C)O1` (stereo partly drawn), which T/C (endpoint: median survival time, dose: 2.7 mg/kg/injection, schedule: Q07DX003 (iv), vehicle: saline, higher = longer survival) is on record?
A: 104 % of control

Q: And the T/C (endpoint: median survival time, dose: 3.3 mg/kg/injection, schedule: Q07DX002 (iv), vehicle: saline, higher = longer survival)?
A: 112 % of control and 108 % of control

Q: What about the T/C (endpoint: median survival time, dose: 3.3 mg/kg/injection, schedule: Q07DX004 (iv), vehicle: saline, higher = longer survival) of the same compound?
A: 118 % of control

Q: And the T/C (endpoint: median survival time, dose: 4.1 mg/kg/injection, schedule: Q07DX003 (iv), vehicle: saline, higher = longer survival)?
A: 100 % of control

Q: What about the T/C (endpoint: median survival time, dose: 4.5 mg/kg/injection, schedule: Q07DX002 (sc), vehicle: saline, higher = longer survival) of the same compound?
A: 79 % of control

Q: And the T/C (endpoint: median survival time, dose: 5.2 mg/kg/injection, schedule: Q07DX002 (iv), vehicle: saline, higher = longer survival)?
A: 174 % of control

Q: And the T/C (endpoint: median survival time, dose: 5.4 mg/kg/injection, schedule: Q07DX002 (iv), vehicle: saline, higher = longer survival)?
A: 109 % of control and 124 % of control

Q: And the T/C (endpoint: median survival time, dose: 5.4 mg/kg/injection, schedule: Q07DX004 (iv), vehicle: saline, higher = longer survival)?
A: 155 % of control

Q: What about the T/C (endpoint: median survival time, dose: 6.0 mg/kg/injection, schedule: Q07DX003 (iv), vehicle: saline, higher = longer survival) of the same compound?
A: 157 % of control

Q: What about the T/C (endpoint: median survival time, dose: 7.3 mg/kg/injection, schedule: Q07DX002 (sc), vehicle: saline, higher = longer survival) of the same compound?
A: 104 % of control

Q: What about the T/C (endpoint: median survival time, dose: 8.5 mg/kg/injection, schedule: Q07DX002 (sc), vehicle: saline, higher = longer survival) of the same compound?
A: 166 % of control

Q: What about the T/C (endpoint: median survival time, dose: 8.7 mg/kg/injection, schedule: Q07DX002 (iv), vehicle: saline, higher = longer survival) of the same compound?
A: 124 % of control

Q: And the T/C (endpoint: median survival time, dose: 8.7 mg/kg/injection, schedule: Q07DX004 (iv), vehicle: saline, higher = longer survival)?
A: 184 % of control

Q: What about the T/C (endpoint: median survival time, dose: 9.0 mg/kg/injection, schedule: Q07DX003 (iv), vehicle: saline, higher = longer survival) of the same compound?
A: 168 % of control

Q: And the T/C (endpoint: median survival time, dose: 9.0 mg/kg/injection, schedule: Q07DX003 (sc), vehicle: saline, higher = longer survival)?
A: 164 % of control

Q: And the T/C (endpoint: median survival time, dose: 12.0 mg/kg/injection, schedule: Q07DX002 (sc), vehicle: saline, higher = longer survival)?
A: 113 % of control

Q: And the T/C (endpoint: median survival time, dose: 13.5 mg/kg/injection, schedule: Q07DX003 (sc), vehicle: saline, higher = longer survival)?
A: 166 % of control

Q: What about the T/C (endpoint: median survival time, dose: 15.5 mg/kg/injection, schedule: Q07DX003 (iv), vehicle: saline, higher = longer survival) of the same compound?
A: 152 % of control

Q: What about the T/C (endpoint: median tumor weight (est.), dose: 0.18 mg/kg/injection, schedule: Q07DX002 (ip), vehicle: water, higher = larger tumour) of the same compound?
A: 67 % of control

Q: And the T/C (endpoint: median tumor weight (est.), dose: 0.37 mg/kg/injection, schedule: Q07DX002 (ip), vehicle: water, higher = larger tumour)?
A: 102 % of control

Q: What about the T/C (endpoint: median tumor weight (est.), dose: 0.5 mg/kg/injection, schedule: Q07DX002 (ip), vehicle: water, higher = larger tumour) of the same compound?
A: 108 % of control

Q: What about the T/C (endpoint: median tumor weight (est.), dose: 0.5 mg/kg/injection, schedule: Q07DX003 (ip), vehicle: saline, higher = larger tumour) of the same compound?
A: 101 % of control

Q: And the T/C (endpoint: median tumor weight (est.), dose: 1.0 mg/kg/injection, schedule: Q07DX003 (ip), vehicle: saline, higher = larger tumour)?
A: 101 % of control

Q: What about the T/C (endpoint: median tumor weight (est.), dose: 1.25 mg/kg/injection, schedule: Q07DX002 (ip), vehicle: water, higher = larger tumour) of the same compound?
A: 90 % of control

Q: What about the T/C (endpoint: median tumor weight (est.), dose: 2.0 mg/kg/injection, schedule: Q07DX003 (ip), vehicle: saline, higher = larger tumour) of the same compound?
A: 191 % of control

Q: What about the T/C (endpoint: median tumor weight (est.), dose: 2.5 mg/kg/injection, schedule: Q07DX002 (ip), vehicle: saline, higher = larger tumour) of the same compound?
A: 90 % of control

Q: What about the T/C (endpoint: median tumor weight (est.), dose: 2.5 mg/kg/injection, schedule: Q07DX002 (ip), vehicle: water, higher = larger tumour) of the same compound?
A: 50 % of control

Q: What about the T/C (endpoint: median tumor weight (est.), dose: 3.0 mg/kg/injection, schedule: Q07DX002 (ip), vehicle: saline, higher = larger tumour) of the same compound?
A: 106 % of control and 110 % of control

Q: And the T/C (endpoint: median tumor weight (est.), dose: 3.0 mg/kg/injection, schedule: Q07DX003 (iv), vehicle: saline, higher = larger tumour)?
A: 82 % of control and 83 % of control

Q: What about the T/C (endpoint: median tumor weight (est.), dose: 4.0 mg/kg/injection, schedule: Q07DX003 (ip), vehicle: saline, higher = larger tumour) of the same compound?
A: 85 % of control

Q: What about the T/C (endpoint: median tumor weight (est.), dose: 4.75 mg/kg/injection, schedule: Q07DX002 (ip), vehicle: water, higher = larger tumour) of the same compound?
A: 68 % of control

Q: And the T/C (endpoint: median tumor weight (est.), dose: 5.0 mg/kg/injection, schedule: Q07DX002 (ip), vehicle: saline, higher = larger tumour)?
A: 70 % of control

Q: And the T/C (endpoint: median tumor weight (est.), dose: 5.0 mg/kg/injection, schedule: Q07DX002 (ip), vehicle: water, higher = larger tumour)?
A: 25 % of control

Q: And the T/C (endpoint: median tumor weight (est.), dose: 6.33 mg/kg/injection, schedule: Q07DX002 (ip), vehicle: water, higher = larger tumour)?
A: 14 % of control

Q: And the T/C (endpoint: median tumor weight (est.), dose: 8.0 mg/kg/injection, schedule: Q07DX003 (ip), vehicle: saline, higher = larger tumour)?
A: 91 % of control

Q: And the T/C (endpoint: median tumor weight (est.), dose: 8.44 mg/kg/injection, schedule: Q07DX002 (ip), vehicle: water, higher = larger tumour)?
A: 53 % of control

Q: And the T/C (endpoint: median tumor weight (est.), dose: 9.0 mg/kg/injection, schedule: Q07DX002 (ip), vehicle: water, higher = larger tumour)?
A: 56 % of control

Q: What about the T/C (endpoint: median tumor weight (est.), dose: 11.25 mg/kg/injection, schedule: Q07DX002 (ip), vehicle: water, higher = larger tumour) of the same compound?
A: 21 % of control

Q: And the T/C (endpoint: median tumor weight (est.), dose: 12.0 mg/kg/injection, schedule: Q07DX002 (ip), vehicle: saline, higher = larger tumour)?
A: 53 % of control

Q: And the T/C (endpoint: median tumor weight (est.), dose: 12.0 mg/kg/injection, schedule: Q07DX003 (iv), vehicle: saline, higher = larger tumour)?
A: 26 % of control

Q: What about the T/C (endpoint: median tumor weight (est.), dose: 15.0 mg/kg/injection, schedule: Q07DX002 (ip), vehicle: water, higher = larger tumour) of the same compound?
A: 6 % of control

Q: And the T/C (endpoint: median tumor weight (est.), dose: 16.0 mg/kg/injection, schedule: Q07DX003 (ip), vehicle: saline, higher = larger tumour)?
A: 103 % of control

Q: And the T/C (endpoint: median tumor weight (est.), dose: 24.0 mg/kg/injection, schedule: Q07DX003 (iv), vehicle: saline, higher = larger tumour)?
A: 12 % of control
